According to patent US9328099B2, “Cyanomethylpyrazole carboxamides as janus kinase inhibitors” (Merck Sharp & Dohme Corp., priority 2011, dated 2016):

Legend:
[1] = target: JAK1 (Homo sapiens (Human), UniProt P23458); assay: Jak Biochemical HTRF Assay, JAK1; settings: HTRF biochemical assay, GST-tagged catalytic domain; top concentration tested […]; read-out: JAK1 IC50
Description: (§1) Jak Biochemical HTRF Assay Protocol
(§2) Subsequent reagent additions employed an Agilent Bravo.

[2] = target: JAK2 (Homo sapiens (Human), UniProt O60674); assay: Jak Biochemical HTRF Assay, JAK2; settings: HTRF biochemical assay, GST-tagged catalytic domain; top concentration tested […]
Description: as §1, §2

JAK1, sequence (P23458 875-1153): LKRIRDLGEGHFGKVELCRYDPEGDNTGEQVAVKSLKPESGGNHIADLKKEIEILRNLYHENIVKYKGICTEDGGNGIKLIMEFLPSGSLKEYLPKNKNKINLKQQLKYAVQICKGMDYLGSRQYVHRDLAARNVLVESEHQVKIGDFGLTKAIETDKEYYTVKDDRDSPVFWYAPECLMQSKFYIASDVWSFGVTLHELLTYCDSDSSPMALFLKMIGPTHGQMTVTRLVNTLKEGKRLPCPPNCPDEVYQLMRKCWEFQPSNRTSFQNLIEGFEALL
JAK2, sequence (O60674 849-1124): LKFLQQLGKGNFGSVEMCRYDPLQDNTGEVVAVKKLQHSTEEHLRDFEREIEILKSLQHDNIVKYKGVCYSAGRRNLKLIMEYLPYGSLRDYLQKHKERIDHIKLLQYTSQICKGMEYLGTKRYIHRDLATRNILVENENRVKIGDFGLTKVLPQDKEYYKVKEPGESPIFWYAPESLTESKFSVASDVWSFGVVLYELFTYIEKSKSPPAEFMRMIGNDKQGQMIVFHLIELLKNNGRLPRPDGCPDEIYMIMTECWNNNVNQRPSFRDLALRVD

Row | SMILES | IC50 [1] [nM] | IC50 [2] [nM]
1 | Cc1ccc(C)c(NC(=O)N2CC(CC#N)(n3cc(C(N)=O)c(Nc4ccccc4)n3)C2)c1 [Example 38-16, 1-{3-(cyanomethyl)-1-[(2,5-dimethylphenyl)carbamoyl]azetidin-3-yl}-3-(phenylamino)-1H-pyrazole-4-carboxamide] | 7 | 111
2 | Cc1ccc(Cl)cc1NC(=O)N1CC(CC#N)(n2cc(C(N)=O)c(Nc3ccccc3)n2)C1 [Example 38-17, 1-{1-[(5-chloro-2-methylphenyl)carbamoyl]-3-(cyanomethyl)azetidin-3-yl}-3-(phenylamino)-1H-pyrazole-4-carboxamide] | 11 | 149
3 | CCCNC(=O)N1CC(CC#N)(n2cc(C(N)=O)c(Nc3ccccc3)n2)C1 [Example 38-18, 1-[3-(cyanomethyl)-1-(propylcarbamoyl)azetidin-3-yl]-3-(phenylamino)-1H-pyrazole-4-carboxamide] | 7 | 106
4 | Cc1ccc(NC(=O)N2CC(CC#N)(n3cc(C(N)=O)c(Nc4ccccc4)n3)C2)c(C)c1 [Example 38-19, 1-{3-(cyanomethyl)-1-[(2,4-dimethylphenyl)carbamoyl]azetidin-3-yl}-3-(phenylamino)-1H-pyrazole-4-carboxamide] | 23 | 334
5 | Cc1cc(C)cc(NC(=O)N2CC(CC#N)(n3cc(C(N)=O)c(Nc4ccccc4)n3)C2)c1 [Example 38-20, 1-{3-(cyanomethyl)-1-[(3,5-dimethylphenyl)carbamoyl]azetidin-3-yl}-3-(phenylamino)-1H-pyrazole-4-carboxamide] | 19 | 326
6 | N#CCC1(n2cc(C(N)=O)c(Nc3ccccc3)n2)CN(C(=O)Nc2ccc(F)c(F)c2)C1 [Example 38-21, 1-{3-(cyanomethyl)-1-[(3,4-difluorophenyl)carbamoyl]azetidin-3-yl}-3-(phenylamino)-1H-pyrazole-4-carboxamide] | 7 | 173
7 | Cc1c(Cl)cccc1NC(=O)N1CC(CC#N)(n2cc(C(N)=O)c(Nc3ccccc3)n2)C1 [Example 38-22, 1-{1-[(3-chloro-2-methylphenyl)carbamoyl]-3-(cyanomethyl)azetidin-3-yl}-3-(phenylamino)-1H-pyrazole-4-carboxamide] | 19 | 249
8 | CCc1cccc(C)c1NC(=O)N1CC(CC#N)(n2cc(C(N)=O)c(Nc3ccccc3)n2)C1 [Example 38-23, 1-{3-(cyanomethyl)-1-[(2-ethyl-6-methylphenyl)carbamoyl]azetidin-3-yl}-3-(phenylamino)-1H-pyrazole-4-carboxamide] | 94 | 1190
9 | Cc1cccc(Cl)c1NC(=O)N1CC(CC#N)(n2cc(C(N)=O)c(Nc3ccccc3)n2)C1 [Example 38-24, 1-{1-[(2-chloro-6-methylphenyl)carbamoyl]-3-(cyanomethyl)azetidin-3-yl}-3-(phenylamino)-1H-pyrazole-4-carboxamide] | 5 | 179
10 | COc1ccc(C)cc1NC(=O)N1CC(CC#N)(n2cc(C(N)=O)c(Nc3ccccc3)n2)C1 [Example 38-25, 1-{3-(cyanomethyl)-1-[(2-methoxy-5-methylphenyl)carbamoyl]azetidin-3-yl}-3-(phenylamino)-1H-pyrazole-4-carboxamide] | 18 | 168
11 | CCOc1ccc(NC(=O)N2CC(CC#N)(n3cc(C(N)=O)c(Nc4ccccc4)n3)C2)cc1 [Example 38-26, 1-{3-(cyanomethyl)-1-[(4-ethoxyphenyl)carbamoyl]azetidin-3-yl}-3-(phenylamino)-1H-pyrazole-4-carboxamide] | 2 | 69
12 | Cc1ccccc1NC(=O)N1CC(CC#N)(n2cc(C(N)=O)c(Nc3ccccc3)n2)C1 [Example 38-27, 1-{3-(cyanomethyl)-1-[(2-methylphenyl)carbamoyl]azetidin-3-yl}-3-(phenylamino)-1H-pyrazole-4-carboxamide] | 11 | 162
13 | N#CCC1(n2cc(C(N)=O)c(Nc3ccccc3)n2)CN(C(=O)Nc2ccc(F)cc2F)C1 [Example 38-28, 1-{3-(cyanomethyl)-1-[(2,4-difluorophenyl)carbamoyl]azetidin-3-yl}-3-(phenylamino)-1H-pyrazole-4-carboxamide] | 6 | 79
14 | CC(C)(C)CC(C)(C)NC(=O)N1CC(CC#N)(n2cc(C(N)=O)c(Nc3ccccc3)n2)C1 [Example 38-29, 1-{3-(cyanomethyl)-1-[(1,1,3,3-tetramethylbutyl)carbamoyl]azetidin-3-yl}-3-(phenylamino)-1H-pyrazole-4-carboxamide] | 185 | 1480
15 | CCOc1ccccc1NC(=O)N1CC(CC#N)(n2cc(C(N)=O)c(Nc3ccccc3)n2)C1 [Example 38-30, 1-{3-(cyanomethyl)-1-[(2-ethoxyphenyl)carbamoyl]azetidin-3-yl}-3-(phenylamino)-1H-pyrazole-4-carboxamide] | 62 | 507
16 | Cc1cccc(C)c1NC(=O)N1CC(CC#N)(n2cc(C(N)=O)c(Nc3ccccc3)n2)C1 [Example 38-31, 1-{3-(cyanomethyl)-1-[(2,6-dimethylphenyl)carbamoyl]azetidin-3-yl}-3-(phenylamino)-1H-pyrazole-4-carboxamide] | 33 | 656
17 | CC(=O)c1cccc(NC(=O)N2CC(CC#N)(n3cc(C(N)=O)c(Nc4ccccc4)n3)C2)c1 [Example 38-32, 1-{1-[(3-acetylphenyl)carbamoyl]-3-(cyanomethyl)azetidin-3-yl}-3-(phenylamino)-1H-pyrazole-4-carboxamide] | 4 | 86
18 | C[C@@H](NC(=O)N1CC(CC#N)(n2cc(C(N)=O)c(Nc3ccccc3)n2)C1)c1ccccc1 [Example 38-33, 1-[3-(cyanomethyl)-1-{[(1R)-1-phenylethyl]carbamoyl}azetidin-3-yl]-3-(phenylamino)-1H-pyrazole-4-carboxamide] | 26 | 265
19 | CCc1cccc(NC(=O)N2CC(CC#N)(n3cc(C(N)=O)c(Nc4ccccc4)n3)C2)c1 [Example 38-35, 1-{3-(cyanomethyl)-1-[(3-ethylphenyl)carbamoyl]azetidin-3-yl}-3-(phenylamino)-1H-pyrazole-4-carboxamide] | 8 | 144
20 | COc1ccc(NC(=O)N2CC(CC#N)(n3cc(C(N)=O)c(Nc4ccccc4)n3)C2)c(C)c1 [Example 38-36, 1-{3-(cyanomethyl)-1-[(4-methoxy-2-methylphenyl)carbamoyl]azetidin-3-yl}-3-(phenylamino)-1H-pyrazole-4-carboxamide] | 15 | 233
21 | Cc1ccc(NC(=O)N2CC(CC#N)(n3cc(C(N)=O)c(Nc4ccccc4)n3)C2)cc1F [Example 38-37, 1-{3-(cyanomethyl)-1-[(3-fluoro-4-methylphenyl)carbamoyl]azetidin-3-yl}-3-(phenylamino)-1H-pyrazole-4-carboxamide] | 8 | 114
22 | CCc1ccccc1NC(=O)N1CC(CC#N)(n2cc(C(N)=O)c(Nc3ccccc3)n2)C1 [Example 38-39, 1-{3-(cyanomethyl)-1-[(2-ethylphenyl)carbamoyl]azetidin-3-yl}-3-(phenylamino)-1H-pyrazole-4-carboxamide] | 16 | 303
